# Test results taken from ChEMBL document CHEMBL1152311, “A multipronged approach to the study of peruvian ethnomedicinal plants: a legacy of the ICBG-Peru Project” (J Nat Prod, 2009).
# Calls of active or inactive are those of the source. No cut-off for these calls is given here.
# Key:
# [1] = system: NCI-H460; assay: Cytotoxicity against human H460 cells; type: functional
# [2] = Cytotoxicity against mouse 3T3 cells; type: cell-based; conditions: BALB/3T3 clone A31 cells
# [3] = system: MCF7; assay: Cytotoxicity against human MCF7 cells; type: functional
# [4] = system: HT-29; assay: Cytotoxicity against human HT-29 cells; type: functional
# [5] = system: M14; assay: Cytotoxicity against human M14 cells; type: functional
# [6] = system: K562; assay: Cytotoxicity against human K562 cells; type: functional
# [7] = system: PC-3; assay: Cytotoxicity against human PC3 cells; type: functional
# [8] = Cytotoxicity against african green monkey Vero cells; type: cell-based; conditions: chlorocebus sabaeus
# [9] = system: DU-145; assay: Cytotoxicity against human DU145 cells; type: functional
# [10] = system: Mycobacterium tuberculosis; assay: Antituberculosis activity against Mycobacterium tuberculosis H37Rv; type: functional, organism-based
# [11] = system: ME-180; assay: Cytotoxicity against human ME180 cells; type: functional
# [12] = system: Saccharomyces cerevisiae; assay: Antimicrobial activity against Saccharomyces cerevisiae RS321; type: functional
# [13] = system: Leishmania amazonensis; assay: Antileishmanial activity against Leishmania amazonensis axenic amastigotes; type: functional
# [14] = species on record: Mus musculus; assay: Wound healing activity in mouse; type: functional
# [15] = system: Saccharomyces cerevisiae; assay: Antimicrobial activity against Saccharomyces cerevisiae RS322; type: functional
# [16] = system: Trypanosoma cruzi; assay: Antitrypanosomal activity against Trypanosoma cruzi Tulahuen C4 transfected with beta-galactosidase; type: functional
Structure (SMILES),GI50 [1] [µM],GI50 [2] [µM],GI50 [3] [µM],GI50 [4] [µM],GI50 [5] [µM],GI50 [6] [µM],GI50 [7] [µM],GI50 [8] [µM],GI50 [9] [µM],Activity [10],GI50 [11] [µM],IC12 [12] [µM],Activity [13] [µM],ED50 [14] [mg/kg],IC12 [15] [µM],Activity [16] [µM]
COc1ccc(CCC(=O)c2c(O)cc(O)cc2OC)cc1,148,141,75.7,117,133,24.5,153,134,138,,,,,,,
C/C=C1/C(=O)O[C@]23C=C[C@@H]4C(C(=O)OC)=CO[C@H](O[C@@H]12)[C@@H]43 [PLUMERICIN],276,431,> 430,> 430,,,,,> 430,inactive,> 430,241,5,,,
CC(C)=CCC[C@](C)(O)[C@H]1CC=C(C)CC1,32.8,54.7,30,28.9,15.1,40.5,28.5,,25.8,,18.2,,,155,,
C[C@H](C/C=C\C(C)(C)OO)[C@H]1CC[C@@]2(C)[C@@H]3CC[C@H]4C(C)(C)[C@@H](O)CC[C@@]45C[C@@]35CC[C@]12C,67.4,82.6,> 136,65.2,58.6,65.2,> 136,> 136,78.7,inactive,,,5.2,,,
COC(=O)C1=CO[C@H](C)[C@@H]2CN3CC[C@@]4(C(=O)Nc5ccccc54)[C@H]3C[C@@H]12 [UNCARINE E],46.1,62.4,,,,,,,114,,67.9,326,,,380,
C=CCOc1cc(OC)c(C(=O)/C=C/c2ccc(OC)cc2)c(OCC=C)c1,52.3,107,51,74.3,72.2,43.4,47.3,,54.9,,,,,,,1.5
